# Measured values from publication PMC11864979, “First-in-class ultralong-target-residence-time p38α inhibitors as a mitosis-targeted therapy for colorectal cancer” (Nature Cancer, 2025).
# Like-named read-outs stand apart in the source and are kept apart here.
# Assays:
# Test in all cases: selectivity profiling in a panel of 340 wild-type kinases (Reaction Biology Europe)
# Type in all cases: binding
# 340 wild-type kinases [1] = target: T1, 340 wild-type kinases (Homo sapiens, UniProt P31749)
# T1 construct: purchased Reaction Biology Europe
# T1 sequence (P31749 whole entry): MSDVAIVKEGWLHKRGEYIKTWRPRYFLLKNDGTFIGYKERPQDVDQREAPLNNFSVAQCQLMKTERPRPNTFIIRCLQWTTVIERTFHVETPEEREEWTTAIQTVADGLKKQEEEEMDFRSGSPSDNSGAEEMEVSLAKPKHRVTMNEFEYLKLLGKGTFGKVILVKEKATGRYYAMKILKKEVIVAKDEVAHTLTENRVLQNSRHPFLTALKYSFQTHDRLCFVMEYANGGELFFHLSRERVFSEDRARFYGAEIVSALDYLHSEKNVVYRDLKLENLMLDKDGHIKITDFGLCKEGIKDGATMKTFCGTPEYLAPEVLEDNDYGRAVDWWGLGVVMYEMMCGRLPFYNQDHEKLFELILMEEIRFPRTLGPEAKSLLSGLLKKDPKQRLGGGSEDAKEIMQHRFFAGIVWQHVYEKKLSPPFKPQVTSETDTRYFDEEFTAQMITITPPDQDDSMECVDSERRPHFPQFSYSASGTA
# 340 wild-type kinases [2] = target: T2, 340 wild-type kinases (Homo sapiens, UniProt Q04759)
# T2 construct: purchased Reaction Biology Europe
# T2 sequence (Q04759 whole entry): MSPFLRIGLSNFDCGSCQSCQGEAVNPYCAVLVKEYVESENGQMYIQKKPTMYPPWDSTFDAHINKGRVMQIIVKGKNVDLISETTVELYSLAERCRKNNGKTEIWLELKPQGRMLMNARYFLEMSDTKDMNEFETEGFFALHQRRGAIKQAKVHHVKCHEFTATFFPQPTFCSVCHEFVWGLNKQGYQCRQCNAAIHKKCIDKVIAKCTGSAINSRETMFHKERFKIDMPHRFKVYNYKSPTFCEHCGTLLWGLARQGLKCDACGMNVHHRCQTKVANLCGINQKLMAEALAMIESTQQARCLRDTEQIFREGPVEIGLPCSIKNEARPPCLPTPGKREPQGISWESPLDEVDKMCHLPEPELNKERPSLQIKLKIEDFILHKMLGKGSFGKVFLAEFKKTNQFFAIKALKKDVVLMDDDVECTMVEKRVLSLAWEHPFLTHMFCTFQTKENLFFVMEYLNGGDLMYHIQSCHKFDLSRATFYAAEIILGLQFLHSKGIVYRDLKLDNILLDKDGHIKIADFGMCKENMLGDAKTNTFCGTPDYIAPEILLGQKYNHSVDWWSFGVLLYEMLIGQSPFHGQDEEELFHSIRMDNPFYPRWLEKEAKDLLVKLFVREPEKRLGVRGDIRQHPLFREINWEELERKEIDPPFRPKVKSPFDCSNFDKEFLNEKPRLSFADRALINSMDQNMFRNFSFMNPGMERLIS
# 340 wild-type kinases [3] = target: T3, 340 wild-type kinases (Homo sapiens, UniProt Q06418)
# T3 construct: purchased Reaction Biology Europe
# T3 sequence (Q06418 41-890): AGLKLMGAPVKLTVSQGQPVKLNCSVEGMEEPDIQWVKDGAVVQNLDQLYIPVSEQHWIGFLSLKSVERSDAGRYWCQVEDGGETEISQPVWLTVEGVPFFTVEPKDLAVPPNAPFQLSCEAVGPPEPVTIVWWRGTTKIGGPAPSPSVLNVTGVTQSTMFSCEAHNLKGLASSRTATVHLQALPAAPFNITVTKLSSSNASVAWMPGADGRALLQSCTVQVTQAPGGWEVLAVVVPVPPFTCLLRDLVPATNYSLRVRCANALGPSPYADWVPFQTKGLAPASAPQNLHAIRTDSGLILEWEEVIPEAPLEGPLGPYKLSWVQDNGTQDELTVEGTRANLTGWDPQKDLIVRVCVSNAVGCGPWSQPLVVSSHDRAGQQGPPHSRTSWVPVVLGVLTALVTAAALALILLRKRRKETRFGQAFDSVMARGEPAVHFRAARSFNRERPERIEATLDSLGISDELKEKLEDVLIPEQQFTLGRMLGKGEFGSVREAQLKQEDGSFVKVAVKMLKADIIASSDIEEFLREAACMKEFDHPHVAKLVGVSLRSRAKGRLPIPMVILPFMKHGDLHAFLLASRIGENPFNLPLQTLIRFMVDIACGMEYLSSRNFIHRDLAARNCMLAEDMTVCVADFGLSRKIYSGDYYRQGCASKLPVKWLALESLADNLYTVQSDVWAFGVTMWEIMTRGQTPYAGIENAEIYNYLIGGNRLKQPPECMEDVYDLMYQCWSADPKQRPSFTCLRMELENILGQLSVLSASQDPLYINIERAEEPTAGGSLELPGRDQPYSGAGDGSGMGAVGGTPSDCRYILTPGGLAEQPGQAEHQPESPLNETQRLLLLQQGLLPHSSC
# 340 wild-type kinases [4] = target: T4, 340 wild-type kinases (Homo sapiens, UniProt Q96PF2)
# T4 construct: purchased Reaction Biology Europe
# T4 sequence (Q96PF2 1-358): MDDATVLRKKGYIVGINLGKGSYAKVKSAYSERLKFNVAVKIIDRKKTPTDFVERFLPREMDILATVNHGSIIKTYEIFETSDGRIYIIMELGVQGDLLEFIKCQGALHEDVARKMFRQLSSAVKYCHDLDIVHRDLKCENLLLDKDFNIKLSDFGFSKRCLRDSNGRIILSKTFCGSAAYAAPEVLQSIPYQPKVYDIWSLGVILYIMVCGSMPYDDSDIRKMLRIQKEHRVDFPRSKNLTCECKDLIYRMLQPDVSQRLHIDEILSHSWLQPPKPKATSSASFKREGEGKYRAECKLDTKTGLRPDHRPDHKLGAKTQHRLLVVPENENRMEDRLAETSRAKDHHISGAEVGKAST
# 340 wild-type kinases [5] = target: T5, 340 wild-type kinases (Homo sapiens, UniProt Q96PY6)
# T5 construct: purchased Reaction Biology Europe
# T5 sequence (Q96PY6 1-1258): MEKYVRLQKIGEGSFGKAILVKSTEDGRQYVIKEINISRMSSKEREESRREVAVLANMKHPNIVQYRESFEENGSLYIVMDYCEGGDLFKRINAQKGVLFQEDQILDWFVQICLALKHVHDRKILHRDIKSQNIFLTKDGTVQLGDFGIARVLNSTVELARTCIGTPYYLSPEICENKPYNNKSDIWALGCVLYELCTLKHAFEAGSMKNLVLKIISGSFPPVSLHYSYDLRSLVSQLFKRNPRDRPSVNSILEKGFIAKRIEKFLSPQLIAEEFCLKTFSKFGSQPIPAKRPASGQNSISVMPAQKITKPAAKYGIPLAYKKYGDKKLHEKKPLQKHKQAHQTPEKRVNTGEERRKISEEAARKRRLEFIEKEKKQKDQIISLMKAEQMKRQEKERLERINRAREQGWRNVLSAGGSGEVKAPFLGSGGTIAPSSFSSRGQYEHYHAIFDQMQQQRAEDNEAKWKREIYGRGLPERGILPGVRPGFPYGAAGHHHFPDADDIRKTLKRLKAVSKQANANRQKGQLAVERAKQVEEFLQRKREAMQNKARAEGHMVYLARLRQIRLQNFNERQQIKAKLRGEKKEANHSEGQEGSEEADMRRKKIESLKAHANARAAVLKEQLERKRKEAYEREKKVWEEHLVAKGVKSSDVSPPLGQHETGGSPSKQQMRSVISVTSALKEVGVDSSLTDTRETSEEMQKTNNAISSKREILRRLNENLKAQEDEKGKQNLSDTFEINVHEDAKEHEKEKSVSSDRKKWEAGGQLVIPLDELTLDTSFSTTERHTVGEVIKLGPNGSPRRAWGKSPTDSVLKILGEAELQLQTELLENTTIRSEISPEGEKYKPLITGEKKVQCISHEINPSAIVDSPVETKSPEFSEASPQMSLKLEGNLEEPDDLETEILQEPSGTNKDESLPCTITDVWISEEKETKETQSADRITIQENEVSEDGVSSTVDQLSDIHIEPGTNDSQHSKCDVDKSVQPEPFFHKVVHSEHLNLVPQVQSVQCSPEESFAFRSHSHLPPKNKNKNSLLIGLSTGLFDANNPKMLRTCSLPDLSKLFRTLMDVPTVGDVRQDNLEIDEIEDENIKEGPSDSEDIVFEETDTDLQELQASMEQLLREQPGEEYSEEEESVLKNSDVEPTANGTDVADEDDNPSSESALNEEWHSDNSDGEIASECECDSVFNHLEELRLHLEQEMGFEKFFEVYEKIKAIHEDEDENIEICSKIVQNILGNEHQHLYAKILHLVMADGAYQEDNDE
smiles,measurement,setting,value
CNC(=O)c1ccc2c(c1)C(=O)c1ccc(Nc3ccc(F)c(NC(=O)C4CC4)c3)cc1CC2 [Compound 2015],remaining activity at 0.2 µM,"340 wild-type kinases [1]; 0.2 µM 2015, read-out: AKT1 residual activity",100%
same,remaining activity at 1 µM,"340 wild-type kinases [1]; 1 µM 2015, read-out: AKT1 residual activity",98.7%
same,remaining activity at 0.2 µM,"340 wild-type kinases [1]; AKT1, 0.2 µM, read-out: residual activity",100%
same,remaining activity at 1 µM,"340 wild-type kinases [1]; AKT1, 1 µM, read-out: residual activity",98.7%
same,remaining activity at 0.2 µM,"340 wild-type kinases [2]; 0.2 µM 2015, read-out: PKCtheta residual activity",108%
same,remaining activity at 1 µM,"340 wild-type kinases [2]; 1 µM 2015, read-out: PKCtheta residual activity",89.1%
same,remaining activity at 0.2 µM,"340 wild-type kinases [2]; PKCtheta, 0.2 µM, read-out: residual activity",108%
same,remaining activity at 1 µM,"340 wild-type kinases [2]; PKCtheta, 1 µM, read-out: residual activity",89%
same,remaining activity at 0.2 µM,"340 wild-type kinases [3]; 0.2 µM 2015, read-out: TYRO3 residual activity",93.9%
same,remaining activity at 1 µM,"340 wild-type kinases [3]; 1 µM 2015, read-out: TYRO3 residual activity",86.6%
same,remaining activity at 0.2 µM,"340 wild-type kinases [3]; TYRO3, 0.2 µM, read-out: residual activity",94%
same,remaining activity at 1 µM,"340 wild-type kinases [3]; TYRO3, 1 µM, read-out: residual activity",86.6%
same,remaining activity at 0.2 µM,"340 wild-type kinases [4]; 0.2 µM 2015, read-out: TSK2 residual activity",104%
same,remaining activity at 1 µM,"340 wild-type kinases [4]; 1 µM 2015, read-out: TSK2 residual activity",106%
same,remaining activity at 0.2 µM,"340 wild-type kinases [4]; TSK2, 0.2 µM, read-out: residual activity",104%
same,remaining activity at 1 µM,"340 wild-type kinases [4]; TSK2, 1 µM, read-out: residual activity",106%
same,remaining activity at 1 µM,"340 wild-type kinases [5]; 1 µM 2015, read-out: NEK1 residual activity",81.3%
same,remaining activity at 1 µM,"340 wild-type kinases [5]; NEK1, 1 µM, read-out: residual activity",81.3%
same,remaining activity at 0.2 µM,340 wild-type kinases [5]; read-out: NEK1 residual activity,86.5%
same,remaining activity at 0.2 µM,340 wild-type kinases [5]; read-out: residual activity,86.5%
